# Test results taken from patent publication US10081615B2, “Sulfamate derivative compounds for use in treating or alleviating pain” (Bio-Pharm Solutions Co., Ltd., priority 2013, dated 2018).
# Read-outs that look alike come from different tables or passages of the source.
# Tests used:
# [1] = tested on: Post operation-induced pain model; assay: Antiallodynic activity on post operative pain-induced pain model (von Frey); format: in vivo, Sprague-Dawley rats; conditions: 0.5 h; for ED50: ip
# Experimental: Male Sprague-Dawley rats (Orient Bio, Korea), 300-320 g, total of 201 rats were used (details in Table 7). Rats were habituated at least 3 days before surgery and free access to food and water (room temperature and humidity were maintained at […] and 50±10%, respectively). The process of performing the post-operation model's surgery was adapted from Brennan et al (1996). At first, rats with allodynia (threshold valueless than 8 g) were excluded in Pre-von Frey Test. During the post-operation surgery, rats were anesthetized under gaseous anesthesia with 2% isoflurane. Rats were laid face down on a plate fixed at 37° C. to prevent against hypothermia. The ipsilateral plantar aspect (left side) of the hind paw was prepared in a sterile manner with a 10% povidone-iodine solution. A longitudinal incision (1 cm) (FIG. 2-A) was made with a blade (number 11) through the skin and fascia of the ipsilateral plantar aspect of the foot, starting from 0.5 cm below the proximal edge of the heel and extending toward the toes. Rats' plantar muscles were elevated and incised longitudinally (FIG. 2-B). After hemostasis with gentle pressure, the skin was opposed with 2 mattress sutures (4-0 Dafilon) (FIG. 2-C). The wound site was covered with a 10% povidone-iodine solution gauze and injected with antibiotics (gentamicin, 8 mg/kg, ip). The sutures were removed under halothane anesthesia approximately 30 hours later, at the end of post-operative day 1.
# After 2-3 days of recovery, rats with a good response (threshold less than 4 g) in Pre-von Frey Test were selected. According to this response, we made three groups with each group having equal average responses: Group 1, post-operation and drug treated; Group 2, post-operation and vehicle treated; Group 3, no post-operation and vehicle treated. In this study, Group 3 was the sham control (positive) group. The group 2 was used to check for possible failures to generate post-operative pain.
# For efficacy measure, the threshold value of group C was assigned 100% efficacy, and the percentage of the threshold values of group A compared to group C (for each different dose level) were calculated as the efficacies. Base on these efficacy values, ED50 was calculated using log fitting. If there was no clear ED50, then we marked the percent efficacy at the highest tested dose or larger than highest tested dose.
# For pain threshold test, all animals were placed in a stainless steel meshed chamber and habituated for 30 min in the test box. The tactile sensitivity of the ipsilateral hind paw was measured using the up-and-down method (Dixon, 1980) with seven von Frey monofilaments (0.4, 1, 2, 4, 6, 8, and 15 g) using 3 trials. The 50% paw withdrawal threshold for each paw was calculated using the following formula: [Xth] log=[vFr] log+ky, where [vFr] is the force of the last von Frey filament used, k=0.2249 which is the average interval (in log units) between the von Frey monofilaments, y which is a value that depends upon the pattern of withdrawal responses, and Xth which is the threshold value (Dixon, 1980).
# Drugs were dissolved 30% PEG400 for example 60, 0.9% saline for Pregabalin, 20% Tween80 for Tylenol, 0.9% saline for Topiramate. These vehicles were selected depending on the compound's solubility. Intraperitoneal injection (5 μl/g) was done for all drugs.
# The relative values compared to the sham (% control) were calculated and shown in Table 8, which show an antiallodynic effect of the compound of examples on Post operation-induced pain model in rats.
# STZ-induced pain model = assay: Antiallodynic activity in the streptozotocin (STZ)-induced diabetic pain model (von Frey); format: in vivo, Sprague-Dawley rats; conditions: 0.5 h; for ED50: ip
# Experimental: Male, Sprague-Dawley rats (200-220 g, Nara Bio, Korea) were habituated for 1 week before surgery and allowed free access to food and water throughout the experimentation. Room temperature and humidity were maintained at 24±2° C. and 50±10%, respectively.
# The STZ-induced diabetic pain model was established with a modified method of Rakieten et al. (1963) and Bertrand Aubel et al. (2004). All animals were fasted for 4 to 6 hr prior to STZ injection. STZ (sigma, USA) was dissolved in 20 mM sodium citrate buffer, pH 5.5 (Sigma. USA) and intraperitoneally injected at 75 mg/kg, 4 ul/g by bodyweight into the rats. Sham controls were injected with same volume of 20 mM sodium citrate buffer, pH 5.5, and vehicle controls were identical to STZ model except for administration of vehicles without treatment. Rats were supplied with 10% sucrose water for 2 days to protect against sudden hypoglycemia, 3 days later, the induction of diabetes was checked by the measurement of tail vein blood glucose levels with a blood glucose meter. (LifeScan OneTouch Ultra, USA). […]
# Tactile sensitivity (mechanical allodynia) was evaluated using von Frey monofilaments before and after treatment of the compound of Examples and the animals were included in the study only if the withdrawal threshold value was less than 4 g. […] The tactile sensitivity for the ipsilateral hind paw was measured using the up-and-down method (Dixon, 1980) with seven von Frey monofilaments (0.4, 1, 2, 4, 6, 8, and 15 g) in 3 trials. […] The 50% paw withdrawal threshold for each paw was calculated using the following formula: [Xth] log=[vFr] log+ky where [vFr] is the force of the last von Frey used, k=0.2249 which is the average interval (in log units) between the von Frey monofilaments, and y is a value that depends upon the pattern of withdrawal responses (Dixon, 1980). […]
# The relative values compared to the sham (% control) were calculated and shown in Table 9, which show an antiallodynic effect of the compound of examples on STZ-induced pain model in rats.
# [2] = Rattus norvegicus, read-out: Post Operation: ED50 mg/kg
structure (smiles),measurement,setting,value
"CC1(C)Oc2ccccc2[C@@H](COS(N)(=O)=O)O1 [Example 2, ((S)-2,2-dimethyl-4H-benzo[d][1,3]dioxin-4-yl)methyl sulfamate]",ED50,"[1]; rat, intraperitoneal, read-out: Post Operation: ED50",14.9 mg/kg
same,ED50,"STZ-induced pain model; rat, intraperitoneal, read-out: STZ model: ED50",27.4 mg/kg
"CC1(C)Oc2ccccc2[C@H](COS([NH-])(=O)=O)O1.[K+] [Example 70, Potassium (R)-(((2,2-dimethyl-4H-benzo[d][1,3]dioxin-4-yl)methoxy)sulfonyl)amide]",Post Operation: effect (%) compared to control,"[1]; rat, intraperitoneal, 18.9 mg/kg administered","(22.0%, 0.5 h)"
"[NH-]S(=O)(=O)OC[C@H]1OC2(CCCC2)Oc2ccccc21.[Na+] [Example 65, Sodium (S)-(((4H-spiro[benzo[d][1,3]dioxine-2,1′-cyclopentan]-4-yl)methoxy)sulfonyl)amide]",ED50,[1]; [2],31.8 mg/kg
same,STZ model: effect (%) compared to control,"STZ-induced pain model; rat, intraperitoneal, 100 mg/kg administered","(25.7%, 0.5 h)"
"CC1(C)Oc2ccccc2[C@H](COS([NH-])(=O)=O)O1.[Na+] [Example 58, Sodium (R)-(((2,2-dimethyl-4H-benzo[d][1,3]dioxin-4-yl)methoxy)sulfonyl)amide Trihydrate]",ED50,[1]; [2],19.4 mg/kg
"CC1(C)Oc2ccccc2C(COS([NH-])(=O)=O)O1.[Na+] (centres unmarked) [Example 60, Sodium (((2,2-dimethyl-4H-benzo[d][1,3]dioxin-4-yl)methoxy)sulfonyl)amide Trihydrate]",ED50,[1]; [2],18.9 mg/kg
same,ED50,"STZ-induced pain model; Rattus norvegicus, read-out: STZ model: ED50 mg/kg",16.1 mg/kg
